According to patent US20140186329A1, “POLYPHENOL ANALOGS TO TREAT ISCHEMIA” (priority 2011, published 2014):
Read-outs that look alike come from different tables or passages of the source.

Tests used:
[1] = tested on: HT22 cells; experiment: In vitro ischemia assay (HT22 cell IAA assay, MTT); type: cell-based, mouse; settings: for increase of survival over the neuroprotective concentration range / neuroprotective concentration range: 20 μM IAA 2 hr, MTT at 24 hours; for percent protection from IAA-induced cell death at 0.1 µM / Emax: HT-22; for percent protection from IAA-induced cell death at 0.1 µM: compound 100 nM; for Emax: HT22 Cell IAA assay, read-out: Max Protection
In short: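 Mouse HT22 hippocampal cells in DMEM/7.5% DFCS exposed 2 hr to 20 μM iodoacetic acid with or without derivative, then 20 hr in IAA-free medium still containing derivative. Viability by MTT (2.5 μg/ml, 4 hr, 37 °C), absorbance at 570 nm.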

[2] = tested on: primary mouse cortical neurons; experiment: Primary cortical cell glutamate excitotoxicity assay; type: cell-based; settings: for % protection against glutamate excitotoxicity at 0.1 µM: Mus musculus, Cortical neurone; for % protection against glutamate excitotoxicity at 0.1 µM / Primary Cortical Cell assay-Glutamate (% protection @ 100 nM): 10 μM glutamate, compound 100 nM
Method: FIG. 5 illustrates pharmacological effects of Baicalein on cultured cells. (A) Trophic factor withdrawal. Primary cortical neurons are prepared from 18-day-old rat embryos, and cultured at low cell density 1×10^6/35 mm dish, in serum containing medium with Baicalein (10-10,000 nM), and viability assayed 2 days later using a live-dead assay. (B) Excitotoxicity assay was done with E14 mouse primary cortical neuron cultures. After 11 days of culture, cells were exposed to 10 μM glutamate for 10 min, followed by the addition of varying concentrations of Baicalein (0.2-5 μM). Cell viability was determined 24 hr later with a standard MTT assay. (C) PC12 cells were glucose-deprived then were incubates in the absence or presence of Baicalein. Cell viability was determined 24 hr later using the MTT assay. (D) RCG-5 nerve cells were treated with 30 μM iodoacetic acid for 2 hr in the presence or absence of 5-25 μM Baicalein. In some experiments, Baicalein was added 2 hr after the ischemic event. Cell survival (%) was measured after 24 hr by the MTT assay. Baicalein added before (□) or 2 hr after ([…]) ischemia.
Primary cultures of cortical neurons that die due to excitotoxicity were prepared as described previously. Briefly, BALB/c mouse embryo cortices were minced and treated with 0.1% trypsin for 20 min. After centrifugation, the cells are resuspended in 827 Neurobasal medium (Invitrogen) plus 10% fetal calf serum and are dissociated by repeated pipetting through a 1 mL blue Eppendorf pipette tip. Then the cells are plated at 1×10^5 cells per well in 96-well poly-L-lysine and laminin-coated microtiter plates (Becton Dickinson, Bedford, Mass., USA) in 827 Neurobasal plus 10% fetal calf serum and 20% glial growth-conditioned medium. Two days later the medium is aspirated and replaced by serum-free 827 Neurobasal medium plus 10 μg/mL cytosine arabinoside. The cultures are used without media change 11 days after plating and are essentially free of astrocytes. They are exposed to 10 μM glutamate followed by varying concentrations of the compounds. Cell viability is determined 24 h later using the fluorescent live/dead assay. Glial conditioned medium is prepared from confluent rat astrocyte cultures. The cells are washed twice with serum-free medium and incubated for 2 days in serum-free Neurobasal medium to produce the growth conditioned medium.
(1) ≧80% cell survival in mouse HT22 hippocampal cells in the presence of 20 μM iodoacetic acid (IAA) (in vitro ischemia model). See, Maher, et al., Brain Res. 2007, 1173:117-25. (2) ≧35% cell survival in primary mouse cortical neurons in the presence of 10 μM glutamate (in vitro excitotoxicity assay). See, Ishige, et al., Free Radic Biol Med, 2001, 30(4): p. 433-46.

[3] = Mus musculus, HT-22, HT22 cells, 20 μM IAA, read-out: HT22 Cell IAA assay EC50
[4] = Mus musculus, HT-22, HT22 cells, 20 μM IAA for 2 hr, viability after 24 hr by MTT, read-out: EC50 in vitro ischemia
[5] = HT22 cells, 20 μM IAA, read-out: HT22 Cell IAA assay EC50

SMILES | EC50 [1, 3] [nM] | EC50 [1, 4] [nM] | percent protection from IAA-induced cell death at 0.1 µM ([1]; Mus musculus, 20 μM IAA) [%] | also measured
O=c1cc(-c2ccccc2)oc2cc(O)c(O)c(O)c12 [Baicalein, 5,6,7-trihydroxyflavone, reference compound] | 1500 | – | – | HT22 Cell IAA assay (maximal % protection) ([1]; 20 μM IAA): 85%; increase of survival over the neuroprotective concentration range ([1]; HT22 cells): greater than 80%; neuroprotective concentration range ([1]; HT22 cells): 2.5 to 10 µM; cells rescued in excitotoxicity assay ([2]; E14 mouse cortical neurons, 10 μM glutamate 10 min, 0.2-5 μM, MTT 24 hr): about 35%; % protection against glutamate excitotoxicity at 0.1 µM [2]: 0%
O=c1c(O)c(-c2ccc(O)c(O)c2)oc2ccccc12 [CMS-04P, reference compound] | 500 | 500 | – | fold improvement of neuroprotective activity/potency relative to Fisetin ([1]; in vitro ischemia, HT22/IAA): ~6 fold
COc1cc(-c2ccc(O)c(O)c2)nc2ccccc12 [CMS-007, 4-methoxy-2-(3,4-dihydroxyphenyl) quinoline] | – | 40 | 71 | fold improvement of neuroprotective activity/potency relative to Fisetin ([1]; in vitro ischemia, HT22/IAA): ~75 fold
Cc1cc(O)c(C(=O)/C=C/c2ccc(O)c(O)c2)cc1C [CMS-011, (E)-3-(3,4-dihydroxyphenyl)-1-(2-hydroxy-4,5-dimethylphenyl)prop-2-en-1-one] | 50 | 50 | 62 | EC50 [1, 5]: 53 nM
CCOc1cc(-c2ccc(O)c(O)c2)nc2ccccc12 [CMS-023, 4-ethoxy-2-(3,4-dihydroxyphenyl) quinoline] | 21 | 20 | 72 | fold improvement of neuroprotective activity relative to CMS-007 ([1]; in vitro ischemia, HT22/IAA): ~2 fold; fold improvement of neuroprotective activity/potency relative to Fisetin ([1]; in vitro ischemia, HT22/IAA): ~140 fold; Primary Cortical Cell assay-Glutamate (% protection @ 100 nM) [2]: 100%
CC(C)Oc1cc(-c2ccc(O)c(O)c2)nc2ccccc12 [CMS-024, 4-isopropoxy-2-(3,4-dihydroxyphenyl) quinoline] | 21 | 20 | 72 | fold improvement of neuroprotective activity relative to CMS-007 ([1]; in vitro ischemia, HT22/IAA): ~2 fold; Primary Cortical Cell assay-Glutamate (% protection @ 100 nM) [2]: 58%
O=C(/C=C/c1ccc(O)c(O)c1)c1ccc2ccccc2c1O [CMS-034, (E)-3-(3,4-dihydroxyphenyl)-1-(1-hydroxynaphthalen-2-yl)prop-2-en-1-one] | ≤ 100 | 80 | 63 | EC50 [1, 5]: 79 nM; Emax ([1]; Mus musculus): 81%
O=c1c(O)c(-c2ccc(O)c(O)c2)oc2c1ccc1ccccc12 [CMS-040, 2-(3,4-dihydroxyphenyl)-3-hydroxy-4H-benzo[h]chromen-4-one] | – | 90 | 67 | fold enhancement of neuroprotective activity relative to CMS-04P ([1]; in vitro ischemia, HT22/IAA): ~5.5 fold; % protection against glutamate excitotoxicity at 0.1 µM [2]: 86%
COc1cc(-c2oc3cc(C)c(C)cc3c(=O)c2O)ccc1OCc1ccccc1 [CMS-059, 2-(4-(benzyloxy)-3-methoxyphenyl)-3-hydroxy-6,7-dimethyl-4H-chromen-4-one] | 167 | 170 | 49 | % protection against glutamate excitotoxicity at 0.1 µM [2]: 78%
COc1cc(-c2oc3cc(C)c(C)cc3c(=O)c2O)ccc1O [CMS-069, 3-hydroxy-2-(4-hydroxy-3-methoxyphenyl)-6,7-dimethyl-4H-chromen-4-one] | < 40 | 40 | 67 | EC50 [1, 5]: 36 nM; Primary Cortical Cell assay-Glutamate (% protection @ 100 nM) [2]: 86%
COc1ccc(/C=C/C(=O)c2cc(C)c(C)cc2O)cc1OCc1ccccc1 [CMS-086, (E)-3-(3-(benzyloxy)-4-methoxyphenyl)-1-(2-hydroxy-4,5-dimethylphenyl)prop-2-en-1-one] | – | – | – | EC50 in vitro ischemia (μM) ([1]; HT22 cells, 20 μM IAA for 2 hr, viability after 24 hr by MTT): no
Cc1cc2oc(-c3ccc(N(C)C)cc3)c(O)c(=O)c2cc1C [CMS-117, 2-(4-(dimethylamino)phenyl)-3-hydroxy-6,7-dimethyl-4H-chromen-4-one] | – | 20 | – | Emax ([1]; Mus musculus): 81%
CN(C)c1ccc(-c2oc3c(ccc4ccccc43)c(=O)c2O)cc1 [CMS-118, 2-(4-(dimethylamino)phenyl)-3-hydroxy-4H-benzo[h]chromen-4-one] | – | 40 | – | Emax ([1]; Mus musculus): 82%
Oc1ccc(-c2cc(OC3CCCC3)c3ccccc3n2)cc1O [CMS-121, 4-cyclopentyloxy-2-(3,4-dihydroxyphenyl) quinoline] | – | 7 | – | Emax ([1]; Mus musculus): 86%; fold improvement of neuroprotective activity/potency relative to Fisetin ([1]; in vitro ischemia, HT22/IAA): > 400 fold
Cc1cc2oc(-c3ccc(N4CCCC4)cc3)c(O)c(=O)c2cc1C [CMS-122, 3-hydroxy-6,7-dimethyl-2-(4-(pyrrolidin-1-yl)phenyl)-4H-chromen-4-one] | – | 90 | – | –
O=c1c(O)c(-c2ccc(N3CCCC3)c(O)c2)oc2c1ccc1ccccc12 [CMS-140, 3-hydroxy-2-(3-hydroxy-4-(pyrrolidin-1-yl)phenyl)-4H-benzo[h]chromen-4-one] | – | 5 | – | Emax ([1]; Mus musculus): 89%; fold improvement of neuroprotective activity/potency relative to Fisetin ([1]; in vitro ischemia, HT22/IAA): up to 600 fold
O=C(/C=C/c1ccc(O)c(O)c1)O[C@@H]1C[C@](O)(C(=O)O)C[C@@H](O)[C@H]1O [Chlorogenic Acid, 1,3,4,5-tetrahydroxy-cyclohexanecarboxylic acid 3-(3,4-dihydroxycinnamate)] | 5000 | – | – | HT22 Cell IAA assay (maximal % protection) ([1]; 20 μM IAA): 45%; % protection against glutamate excitotoxicity at 0.1 µM [2]: 0%
O=c1c(O)c(-c2ccc(O)c(O)c2)oc2cc(O)ccc12 [Fisetin, 3,7,3′,4′-Tetrahydroxyflavone, reference compound] | 3000 | 3000 | – | HT22 Cell IAA assay (maximal % protection) ([1]; 20 μM IAA): 90%; increase of survival over the neuroprotective concentration range ([1]; HT22 cells): greater than 85%; neuroprotective concentration range ([1]; HT22 cells): 5 to 25 µM; Primary Cortical Cell assay-Glutamate (% protection @ 100 nM) [2]: 0%
